Laboratory results reported in paper PMC2962730 (Journal of neurochemistry, 2010).
Changes are numbered by the printed parent chain. Entries after “also recorded” stand apart in the source; their conditions may differ.

Legend:
[1] = test system: rat VAChT (rVAChT) W331 mutants; conditions: mutations of W331 in rVAChT; ref Ojeda et al. 2004; cited from earlier work
hVAChT K317A = target: T1, hVAChT K317A (Homo sapiens, UniProt Q16572, K317A); experiment: [3H]vesamicol saturation binding; conditions: pH 7.4
T1 sequence (Q16572 1-532 K317A): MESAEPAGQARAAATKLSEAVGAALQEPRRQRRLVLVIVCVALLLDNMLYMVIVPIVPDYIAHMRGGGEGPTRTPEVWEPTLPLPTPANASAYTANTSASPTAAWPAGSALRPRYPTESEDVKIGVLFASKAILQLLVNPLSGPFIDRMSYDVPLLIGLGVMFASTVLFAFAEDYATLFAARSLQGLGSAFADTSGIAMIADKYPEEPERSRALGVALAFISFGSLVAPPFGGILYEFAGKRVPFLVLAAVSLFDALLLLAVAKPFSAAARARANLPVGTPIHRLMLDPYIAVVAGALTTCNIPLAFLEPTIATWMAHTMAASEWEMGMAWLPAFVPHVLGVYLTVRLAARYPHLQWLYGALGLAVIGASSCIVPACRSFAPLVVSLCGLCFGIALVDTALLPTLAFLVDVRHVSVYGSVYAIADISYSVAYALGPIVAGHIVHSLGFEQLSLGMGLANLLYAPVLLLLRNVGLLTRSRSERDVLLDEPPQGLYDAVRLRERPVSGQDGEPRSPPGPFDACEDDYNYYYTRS

hVAChT A334F = target: T2, hVAChT A334F (Homo sapiens, UniProt Q16572, A334F); experiment: [3H]ACh transport; assay type: biochemical
T2 sequence (Q16572 1-532 A334F): T1 sequence (Q16572 1-532 K317A) with A317K, A334F

hVAChT Y60A = target: T3, hVAChT Y60A (Homo sapiens, UniProt Q16572, Y60A); experiment: ACh equilibrium binding by competition against [3H]vesamicol
T3 sequence (Q16572 1-532 Y60A): T1 sequence (Q16572 1-532 K317A) with Y60A, A317K

hVAChT Y60W = target: T4, hVAChT Y60W (Homo sapiens, UniProt Q16572, Y60W); experiment: [3H]ACh transport; assay type: biochemical
T4 sequence (Q16572 1-532 Y60W): T1 sequence (Q16572 1-532 K317A) with Y60W, A317K

hVAChT W315A = target: T5, hVAChT W315A (Homo sapiens, UniProt Q16572, W315A); experiment: ACh equilibrium binding by competition against [3H]vesamicol
T5 sequence (Q16572 1-532 W315A): T1 sequence (Q16572 1-532 K317A) with W315A, A317K

ACh transport rate relative to wild-type (as fast as) (hVAChT A334F; A334F hVAChT vs wild-type)	Vmax/Bmax, ACh transport normalized to Bmax (hVAChT A334F; A334F hVAChT, pH 7.4) [min⁻¹]	Km (hVAChT A334F; read-out: KM, Michaelis-Menten constant for ACh transport, A334F hVAChT, pH 7.4) [µM]	Kd (hVAChT Y60A) [mM]	FHA, fraction of the ACh sites that have high affinity (hVAChT Y60A; Y60A hVAChT, pH 7.4)	Vmax/Bmax, ACh transport normalized to Bmax (hVAChT Y60W; pH 7.4) [min⁻¹]	Km (hVAChT Y60W; read-out: KM, Michaelis-Menten constant for ACh transport, pH 7.4) [µM]	Kd (hVAChT W315A) [mM]	FHA, fraction of the ACh sites that have high affinity (hVAChT W315A; W315A hVAChT, pH 7.4)	SMILES	effect on vesamicol affinity [1]	Bmax, maximal specific [3H]vesamicol binding (VAChT expression level) (hVAChT K317A) [pmol/mg]
									O[C@@H]1CCCC[C@H]1N1CCC(c2ccccc2)CC1 (racemic) [vesamicol, ( )-trans-2-(4-phenylpiperidino)cyclohexanol]	no loss in affinity for vesamicol; also recorded: without affecting vesamicol affinity	21 ± 1
about one-half	3.6 ± 0.8	3000 ± 1300	8.2 ± 0.7	0.92 ± 0.02	7.9 ± 0.8	920 ± 170	11 ± 4	0.84 ± 0.16	CC(=O)OCC[N+](C)(C)C [ACh, acetylcholine]		
